pKi: −log10 of the molar value.
What was measured:
[1] = target: T1, CHO-hB2 cell membranes (Homo sapiens, UniProt P30411); test: [35S]GTPγS Binding Assay in CHO-hB2 Cell Membranes; type: biochemical; conditions: for Functional Activity: word part of the cell, effect on bradykinin-stimulated [35S]GTPγS binding; for Functional Activity (% Basal): number in parentheses, bradykinin-stimulated [35S]GTPγS binding, test concentration not given
T1 construct: purchased Receptor Biology, Inc. (Baltimore, MD); host or cells: CHO-hB2 cells (membranes)
T1 sequence (P30411 1-391): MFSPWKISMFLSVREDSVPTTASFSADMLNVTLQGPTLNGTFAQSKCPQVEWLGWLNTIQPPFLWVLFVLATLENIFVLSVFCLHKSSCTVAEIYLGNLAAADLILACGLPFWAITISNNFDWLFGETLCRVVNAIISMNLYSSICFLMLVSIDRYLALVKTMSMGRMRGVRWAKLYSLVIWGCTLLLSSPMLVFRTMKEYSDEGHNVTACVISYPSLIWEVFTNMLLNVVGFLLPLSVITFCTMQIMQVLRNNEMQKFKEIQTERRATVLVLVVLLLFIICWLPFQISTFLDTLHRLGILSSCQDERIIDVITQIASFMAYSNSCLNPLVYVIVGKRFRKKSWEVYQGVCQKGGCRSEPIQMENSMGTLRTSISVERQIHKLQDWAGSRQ
Protocol: CHO-hB2 cell membranes were purchased from Receptor Biology, Inc. (Baltimore,MD). 10 mg/mL of membrane protein was suspended in 10 mM TRIS-HC pH 7.2, 2 mM EDTA, 10% sucrose.
Membranes were added into 15 mL ice cold binding assay buffer. The assay buffer contained 50 mM HEPES, pH 7.6, 5 mM MgCl2, 100 mM NaCl, 1 mM DTT and 1 mM EDTA. The membrane suspension was homogenized twice with a Polytron and centrifuged at 3000 rpm for 10 min. The supernatant was then centrifuged at 18,000 rpm for 20 min. The pellet was saved in a tube and resuspended.
The pellet membranes (40 µg/mL) were preincubated with SPA (scintillation proximity assay) beads (20 mg/mL) at 25C° for 45 min in the assay buffer. The SPA beads (5 mg/mL) coupled with membranes (10 µg/mL) were then incubated with 0.5 nM [^35S]GTPγS in the same HEPES buffer containing 50 µM GDP in total volume of 200 µL. Bradykinin was used to stimulate [^35S]GTPγS binding. Varying concentrations of drugs were incubated with bradykinin to inhibit bradykinin-stimulated [^35S]GTPγS binding. The basal binding was tested in the absence of bradykinin and no specific binding was tested in the present 10 µM unlabeled GTPγS. The radioactivity was quantified on a Packard Top Count, and calculated. % of Basal = (stimulated binding-non specific binding)/(basal binding-non specific binding) × 100. [formula]

[2] = target: T2, human B2 bradykinin receptors (Homo sapiens, UniProt P30411); test: Bradykinin B2 (BK2) Receptor Binding Assay; conditions: membranes of CHO-K1 cells transfected with human B2 bradykinin receptors; ~0.25 nM [3H]NPC17731; 60 min at 25°C
T2 construct: purchased Receptor Biology, Inc. (Baltimore, MD); host or cells: CHO-K1 cells transfected with the human B2 receptor (membranes)
T2 sequence (P30411 1-391): T1 sequence (P30411 1-391)
Protocol: Cell membranes of CHO-K1 cells transfected with human B2 bradykinin receptors (CH)-hB2) were purchased from Receptor Biology, Inc. (Baltimore,MD).
Samples were harvested on a Brandel Cell Harvester on to Wallac filtermat B sheets (96 sample format), and washed three times with 2 mL cold HEPES-buffer (10 mM, pH 7.5), and dried in a microwave oven.
The data were used to calculate either the % inhibition compared to control binding (when only a single concentration of test compound was evaluated) or a Ki value (when a range of concentrations were tested). Background was subtracted from mean cpm values and % inhibition was calculated as: [(total dpm-test compound dpm)/(total dpm-nonspecific dpm)]x100. Kd and Ki values were calculated using GraphPad PRISM data analysis program.

| SMILES | Functional Activity [1] | pKi [2] | Functional Activity (% Basal) [1] [% Basal] |
| --- | --- | --- | --- |
| Cc1ccc2cccc(OCc3c(Cl)ccc(NC(=O)Cc4ccc(C(=O)c5ccc(C#N)cc5)n4C)c3Cl)c2n1 [Compound 15] | Weak antagonist | – | – |
| COC(=O)c1ccc(C(=O)c2ccc(CC(=O)N(C)c3ccc(Cl)c(COc4cccc5ccc(C)nc45)c3Cl)n2C)cc1 [Compound 64] | Antagonist | 6.79 | 45 |
| Cc1ccc2cccc(OCc3c(Cl)ccc(N(C)C(=O)Cc4ccc(C(=O)c5ccc([S+](C)[O-])cc5)n4C)c3Cl)c2n1 (stereo not drawn) [Compound 73, N-[2,4-Dichloro-3-(2-methyl-quinolin-8-yloxymethyl)-phenyl]-2-[5-(4-methanesuifinyl-benzoyl)-1-methyl-1H-pyrrol-2-yl]-N-methyl-acetamide] | Antagonist | 7.19 | 78 |
| Cc1ccc2cccc(OCc3c(Cl)ccc(N(C)C(=O)CCc4ccc(C(=O)c5cccnc5)n4C)c3Cl)c2n1 [Compound 85] | Antagonist | 7.82 | 65 |
| Cc1ccc2cccc(OCc3c(C)ccc(N(C)C(=O)CCc4ccc(C(=O)c5cccnc5)n4C)c3C)c2n1 [Compound 84] | Antagonist | 6.52 | 57 |
| COc1ccc(C(=O)c2ccc(CC(=O)N(C)c3ccc(Cl)c(COc4cccc5ccc(C)nc45)c3Cl)n2C)cc1 [Compound 68] | Weak antagonist | 6.72 | 4 |
| CCCCn1c(CC(=O)N(C)c2ccc(Cl)c(COc3cccc4ccc(C)nc34)c2Cl)ccc1C(=O)c1ccc(C#N)cc1 [Compound 10] | No effect | 7.54 | 1 |
| Cc1ccc2cccc(OCc3c(Cl)ccc(N(C)C(=O)Cc4ccc(C(=O)c5ccc(C#N)cc5)n4CC4CC4)c3Cl)c2n1 [Compound 11, 2-[5-(4-Cyano-benzoyl)-1-cyclopropylmethyl-1H-pyrrol-2-yl]-N-[2,4-dichloro-3-(2-methyl-quinolin-8-yloxymethyl)-phenyl]-N-methyl-acetamide] | No effect | 7.32 | 1 |
| CC(=O)Nc1cccc(C(=O)c2ccc(CC(=O)N(C)c3ccc(Cl)c(COc4cccc5ccc(C)nc45)c3Cl)n2C)c1 [Compound 72] | Antagonist | 7.07 | 74 |
| CSc1ccc(C(=O)c2ccc(CC(=O)N(C)c3ccc(Cl)c(COc4cccc5ccc(C)nc45)c3Cl)n2C)cc1 [Compound 69] | Antagonist | 6.96 | 41 |
| Cc1ccc2cccc(OCc3c(Cl)ccc(N(C)C(=O)Cc4ccc(C(=O)c5ccccc5[N+](=O)[O-])n4C)c3Cl)c2n1 [Compound 66] | Antagonist | 6.77 | 35 |
| Cc1ccc2cccc(OCc3c(Cl)ccc(N(C)C(=O)CCc4ccc(C(=O)c5cccs5)n4C)c3Cl)c2n1 [Compound 81] | No effect | 6.52 | 1 |
| CC(=O)Nc1ccc(C=CC(=O)NC[C@H]2CCCN2c2ccc(C)c(COc3cccc4ccc(C)nc34)c2C)cn1 [Compound 112, 3-(6-Acetytamino-pyridin-3-yl)-N-{1-[2,4-dimethyl-3-(2-methyl-quinolin-8-yloxymethyl)-phenyl]-pyrrolidin-2-(R)ylmethyl}-acrylamide.] | Antagonist | 7.27 | 59 |
| Cc1ccc2cccc(OCc3c(Cl)ccc(N(C)C(=O)Cc4ccc(C(=O)c5ccc(C#N)cc5)n4CCC(C)C)c3Cl)c2n1 [Compound 13] | No effect | 7.36 | 1 |
| Cc1ccc2cccc(OCc3c(Cl)ccc(N(C)C(=O)Cc4ccc(C(=O)Cc5ccccc5)n4C)c3Cl)c2n1 [Compound 28] | – | 5.63 | – |
| Cc1ccc(C(=O)c2ccc(CC(=O)N(C)c3ccc(Cl)c(COc4cccc5ccc(C)nc45)c3Cl)n2C)cc1 [Compound 54] | – | 6.45 | – |
| Cc1ccc2cccc(OCc3c(Cl)ccc(N(C)C(=O)Cc4ccc(C(=O)c5cccc6ccccc56)n4C)c3Cl)c2n1 [Compound 38] | – | 6.09 | – |

| SMILES | Functional Activity [1] | pKi [2] | Functional Activity (% Basal) [1] [% Basal] |
| --- | --- | --- | --- |
| Cc1ccc2cccc(OCc3c(Cl)ccc(N(C)C(=O)Cc4ccc(C(=O)c5ccc(C(F)(F)F)cc5)n4C)c3Cl)c2n1 [Compound 51] | – | 6.32 | – |
| COc1ccc(C(=O)c2c(C)cc(CC(=O)Nc3ccc(Cl)c(COc4cccc5ccc(C)nc45)c3Cl)n2C)cc1 [Compound 120] | – | 5.81 | – |
| Cc1ccc2cccc(OCc3c(Cl)ccc(N(C)C(=O)Cc4ccc(C(=O)c5ccc(S(N)(=O)=O)cc5)n4C)c3Cl)c2n1 [Compound 70] | – | 6.79 | – |
| CCn1cc(CC(=O)N(C)c2ccc(Cl)c(COc3cccc4ccc(C)nc34)c2Cl)cc1C(=O)c1ccc(C#N)cc1 [Compound 3, 2-[5-(4-Cyano-benzoyl)-1-ethyl-1H-pyrrol-3-yl]-N-[2,4-dichloro-3-(2-methyl-quinolin-8-yloxymethyl)phenyl]-N-methyl-acetamide] | – | 6.27 | – |
| Cc1ccc2cccc(OCc3c(Cl)ccc(N(C)C(=O)Cc4ccc(C(=O)c5cccc(N)c5)n4C)c3Cl)c2n1 [Compound 57] | – | 6.44 | – |
| C=CCN(C(=O)Cc1ccc(C(=O)c2ccc(C#N)cc2)n1C)c1ccc(Cl)c(COc2cccc3ccc(C)nc23)c1Cl [Compound 21] | – | 6.29 | – |
| Cc1ccc2cccc(OCc3c(Cl)ccc(N(C)C(=O)Cc4ccc(C(=O)CN(C)c5ccccc5)n4C)c3Cl)c2n1 [Compound 24] | – | 5.27 | – |
| Cc1ccc2cccc(OCc3c(C)ccc(N(C)C(=O)CCc4ccc(C(=O)c5ccccc5)s4)c3C)c2n1 [Compound 104] | – | 6.26 | – |
| Cc1ccc2cccc(OCc3c(Cl)ccc(N(C)C(=O)Cc4ccc(C(=O)c5cccc(C#N)c5)n4C)c3Cl)c2n1 [Compound 44] | – | 6.19 | – |
| Cc1ccc2cccc(OCc3c(Cl)ccc(NC(=O)Cc4cc(C)c(C(=O)c5ccc(N)cc5)n4C)c3Cl)c2n1 [Compound 121] | – | 4.70 | – |
| Cc1ccc2cccc(OCc3c(Cl)ccc(N(C)C(=O)Cc4ccc(C(=O)c5ccc(Br)cc5)n4C)c3Cl)c2n1 [Compound 35] | – | 5.98 | – |
| Cc1ccc2cccc(OCc3c(Cl)ccc(N(C)C(=O)Cc4ccc(C(=O)c5ccccc5N)n4C)c3Cl)c2n1 [Compound 53] | – | 6.41 | – |
| Cc1ccc2cccc(OCc3c(Cl)ccc(N(C)C(=O)Cc4ccc(C(=O)c5ccc(N(C)C)cc5)n4C)c3Cl)c2n1 [Compound 118, N-[2,4-Dichloro-3-(2-methyl-quinolin-8-yloxymethyl)-phenyl]-2-[5-(4-dimethylamino-benzoyl)-1-methyl-1H-pyrrol-2-yl]-N-methyl-acetamide] | – | 6.37 | – |
| CSc1ccc(C(=O)c2ccc(CC(=O)N(C)c3ccc(Cl)c(COc4cccc5ccc(C)nc45)c3Cl)n2C)s1 [Compound 43] | – | 6.17 | – |
| Cc1ccc2cccc(OCc3c(Cl)ccc(N(C)C(=O)Cc4ccc(C(=O)C5CCCCC5)n4C)c3Cl)c2n1 [Compound 30] | – | 5.75 | – |
| Cc1ccc2cccc(OCc3c(Cl)ccc(N(C)C(=O)CCc4ccc(C(=O)c5ccccc5)s4)c3Cl)c2n1 [Compound 105] | – | 6.05 | – |
| COc1ccc(-c2ccc(CC(=O)N(C)c3ccc(C)c(COc4cccc5ccc(C)nc45)c3C)n2C)cc1 [Compound 96, N-[2,4-Dimethyl-3-(2-methyl-quinolin-8-yloxymethyl)-phenyl]-2-[5-(4-methoxyphenyl)-1-methyl-1H-pyrrol-2-yl]-N-methyl-acetamide] | – | 5.67 | – |
